These results are taken from PubChem BioAssay AID2060497 (Molecular Pharmacology Branch, DTP, NCI, 2025).

“And” between values parts separate entries of the source, which are not always exact repeats. Equal entries are not always repeated.

The subject of the assay is 317291-083-R-J1-PDC complex spheroids, viability. Briefly: Anticancer human tumor 317291-083-R-J1-PDC patient-derived soft tissue sarcoma cell line growth inhibition [GQUAD]. To be noted: for viability, T/C: stronger effect = lower value. The source says:
DNA G-quadruplex Stabilizer Agents in Combinations in Complex Spheroids
A high-throughput screen of multi-cell type tumor spheroids was designed to identify active combinations of DNA G-quadruplex stabilizer agents and targeted small molecules. Complex spheroids include a stromal component modeled by human endothelial cells (HUVEC) and fibroblasts modeled by human mesenchymal stem cells (MSCs). The concentration ranges selected for each drug and investigational agent were based upon clinically achievable concentrations if the clinical Cmax of the agent was known.
Compounds. The drugs and investigational agents: pidnarulex (CX-5461; NSC782164), APTO-253 (NSC789042), BRACO-19 (NSC847499), peposertib (NSC802822), ceralasertib (NSC780249), elimusertib (NSC800525), camonsertib (NSC841442), AZD-1390 (NSC803789), olaparib (NSC753686), talazoparib (NSC767125), ART-558 (NSC835418), sotorasib (NSC818433), MRTX-1133 (NSC836407), SN-38 (NSC673596), topotecan (NSC609699), etoposide (NSC141540), doxorubicin (NSC123127), gemcitabine (NSC613327), 5-fluorouracil (NSC19893), paclitaxel (NSC125973), vemurafenib (NSC761431), panobinostat (NSC761190), R-306465 (JNJ-16241199; NSC773264), adavosertib (NSC754352), TP-3654 (NSC805149), carboplatin (NSC241240), KSQ-4279 (NSC840948), and staurosporine (NSC755774) were obtained from the National Cancer Institute (NCI) Developmental Therapeutics Program Chemical Repository (34). The FDA-approved anticancer drug set is available from the NCI Developmental Therapeutics Program. […] The stock solutions were prepared in dimethyl sulfoxide (DMSO, Sigma-Aldrich, St. Louis, MO, cat. D2650) at 800-fold the tested concentration and stored at -70 degrees C prior to their use. All drugs and investigational agents were tested over a range starting from a high concentration at or near the clinical Cmax and decreasing in half-log increments. If the clinical Cmax for an agent had not been determined, the highest concentration tested was 10 microM.
2.3 Cell Culture. All cells were maintained in an incubator at 37 degrees C and 5% CO2 with 95% humidity. The PDC lines were cultured according to standard operating procedures established by the NCI PDMR. All PDCs were thawed and cultured in Matrigel-coated flasks prepared with a working solution of 1X Ham's F-12 nutrient mix, without supplementation (Invitrogen, cat. 11765054), 100 U/mL penicillin-streptomycin (Invitrogen, cat. 15140122), and 2.5% Matrigel (Corning Inc., cat. 354248) for the first three passages. The 857933-349-R-J2-PDC line was cultured in 6C/Colon 1B media, which includes advanced DMEM/F-12 (Thermo Fisher Scientific, cat. 12634028), 10 mM HEPES (Thermo Fisher Scientific, cat. 15630080), 1X GlutaMAX supplement (Thermo Fisher Scientific, cat. 35050061), 0.1 mg/mL primocin (InvivoGen, cat. ant-pm-2), 10% defined fetal bovine serum, heat inactivated (HyClone Laboratories Inc., cat. SH30070.03HI), 50% L-WRN conditioned media (ATCC, cat. CRL-3276), 1.25 mM N-Acetyl-L-cysteine (Sigma-Aldrich, cat. A9165), 10 mM nicotinamide (Sigma-Aldrich, cat. N0636), 1X B-27 supplement (Thermo Fisher Scientific, cat. 17504044), 1X N-2 supplement (Thermo Fisher Scientific, cat. 17502048), 10 microM Y-27632 dihydrochloride (Tocris Bioscience, cat. 1254), and 50 ng/mL human EGF recombinant protein (Thermo Fisher Scientific, cat. PHG0311). The 485176-168-R4-J1-PDC line was cultured in Panc media, which includes all 6C/Colon 1B media components plus 100 ng/mL human FGF-10 (Thermo Fisher Scientific, cat. 100-26), 500 nM SB-431542 (Selleckchem, cat. S1067), and gastrin (Tocris, cat. 3006).
[…]
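Note: spheroids exposed to compounds for one week before readout.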
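Throughout, for viability, T/C: percent viability relative to DMSO vehicle wells taken as 100%.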

With `O=C(NO)c1cnc(N2CCN(S(=O)(=O)c3ccc4ccccc4c3)CC2)nc1`, the viability, T/C (commonly the result in the treated group divided by that in the control group, in per cent) is, setting by setting: (compound 0.0316 µM) 109% and 96.9% and 93.2%; (compound 0.1 µM) 62.2% and 72.5% and 96.7%; (compound 0.316 µM) 8.74% and 8.1% and 24.6%; (compound 1 µM) 0.24% and 0.48% and 0.9%; (compound 3.16 µM) 0.11% and 0.05% and 0.04%; (compound 10 µM) 0.29% and 1.01% and 0.08%. In addition, the IC50 – broadly, the concentration that inhibits the measured activity by half – (curve of compound) is 130 nM and 149 nM and 209 nM.

On to `O=C(c1cc(Cc2n[nH]c(=O)c3ccccc23)ccc1F)N1CCN(C(=O)C2CC2)CC1`, for which the viability, T/C runs as follows: (compound 0.0316 µM) 111% and 115% and 109%; (compound 0.1 µM) 96.5% and 83.9% and 97.3%; (compound 0.316 µM) 120% and 96.5% and 93.9%; (compound 1 µM) 88.7% and 107% and 99.4%; (compound 3.16 µM) 87.6% and 84.9% and 93.7%; (compound 10 µM) 71% and 58.2% and 59.2%. The IC50 (curve of compound) is > 10000 nM.

In the case of `Cc1[nH]c2ccccc2c1CCNCc1ccc(/C=C/C(=O)NO)cc1`, the viability, T/C is 108% and 109% and 114% (compound 0.000999 µM); 92% and 89.5% and 96.1% (compound 0.00316 µM); 106% and 110% and 105% (compound 0.00999 µM); 62.6% and 80.2% and 99% (compound 0.0316 µM); 8.77% and 22.1% and 21.3% (compound 0.0999 µM); 0.25% and 0.09% and 0.84% (compound 0.316 µM). The IC50 (curve of compound) was 41.4 nM and 57.9 nM and 65.3 nM.

In the case of `Cc1[nH]c2ccccc2c1CCNCc1ccc(/C=C/C(=O)NO)cc1` + Cc1[nH]c2ccc(F)cc2c1-c1nc2c3cccnc3c3ncccc3c2[nH]1, the IC50 is, setting by setting: (curve of first compound, second compound 0.0316 µM) 43.4 nM; (curve of first compound, second compound 0.1 µM) 48.1 nM; (curve of first compound, second compound 0.316 µM) 12.1 nM; (curve of first compound, second compound 1 µM) 4.07 nM; (curve of first compound, second compound 3.16 µM) 1.08 nM; (curve of first compound, second compound 10 µM) < 0.999 nM. Moreover, the viability, T/C runs as follows: (second compound 0.0316 µM, first compound 0.000999 µM) 114%; (second compound 0.0316 µM, first compound 0.00316 µM) 96.7%; (second compound 0.0316 µM, first compound 0.00999 µM) 96.9%; (second compound 0.0316 µM, first compound 0.0316 µM) 67%; (second compound 0.0316 µM, first compound 0.0999 µM) 6.7%; (second compound 0.0316 µM, first compound 0.316 µM) 0.62%. For the same compound, the viability, T/C reads like this: (second compound 0.1 µM, first compound 0.000999 µM) 93.4%; (second compound 0.1 µM, first compound 0.00316 µM) 93.3%; (second compound 0.1 µM, first compound 0.00999 µM) 85.2%; (second compound 0.1 µM, first compound 0.0316 µM) 74%; (second compound 0.1 µM, first compound 0.0999 µM) 8.53%; (second compound 0.1 µM, first compound 0.316 µM) 0.12%. In addition, the viability, T/C was 73.3% (second compound 0.316 µM, first compound 0.000999 µM); 68.5% (second compound 0.316 µM, first compound 0.00316 µM); 53.9% (second compound 0.316 µM, first compound 0.00999 µM); 28.9% (second compound 0.316 µM, first compound 0.0316 µM); 6.05% (second compound 0.316 µM, first compound 0.0999 µM); 0.16% (second compound 0.316 µM, first compound 0.316 µM). The viability, T/C was 59.9% (second compound 1 µM, first compound 0.000999 µM); 51% (second compound 1 µM, first compound 0.00316 µM); 39.7% (second compound 1 µM, first compound 0.00999 µM); 15.5% (second compound 1 µM, first compound 0.0316 µM); 3.36% (second compound 1 µM, first compound 0.0999 µM); 0.14% (second compound 1 µM, first compound 0.316 µM). Further, the viability, T/C (second compound 3.16 µM, first compound 0.000999 µM) was 51.5%; the viability, T/C (second compound 3.16 µM, first compound 0.00316 µM) is 39%; the viability, T/C (second compound 3.16 µM, first compound 0.00999 µM) is 19.9%; the viability, T/C (second compound 3.16 µM, first compound 0.0316 µM) was 27.9%; the viability, T/C (second compound 3.16 µM, first compound 0.0999 µM) is 1.59%; the viability, T/C (second compound 3.16 µM, first compound 0.316 µM) was 0.17%. Besides, the viability, T/C reads like this: (second compound 10 µM, first compound 0.000999 µM) 48.7%; (second compound 10 µM, first compound 0.00316 µM) 49%; (second compound 10 µM, first compound 0.00999 µM) 51.4%; (second compound 10 µM, first compound 0.0316 µM) 13.5%; (second compound 10 µM, first compound 0.0999 µM) 3.62%; (second compound 10 µM, first compound 0.316 µM) 0.24%.

`Cn1ncnc1[C@H]1c2n[nH]c(=O)c3cc(F)cc(c23)N[C@@H]1c1ccc(F)cc1`: the viability, T/C is, setting by setting: (compound 0.000999 µM) 123% and 104% (2×); (compound 0.00316 µM) 109% and 92.2% and 102%; (compound 0.00999 µM) 99.7% and 95.3% and 94.3%; (compound 0.0316 µM) 86.2% and 89.7% and 90.5%; (compound 0.0999 µM) 98.2% and 67.3% and 84.9%; (compound 0.316 µM) 64.2% and 62.6% and 69%. Also, the IC50 (curve of compound) is > 316 nM.

Take `COc1ncnc(C2CC2)c1-c1ncc2cnn(Cc3ccc(-c4nc(C(F)(F)F)cn4C(C)C)cc3)c2n1`: the viability, T/C is 103% and 107% and 108% (compound 0.0316 µM); 92.9% and 85.3% and 81.5% (compound 0.1 µM); 92.4% and 71.4% and 68.1% (compound 0.316 µM); 74.2% and 64.1% and 68.2% (compound 1 µM); 100% and 63.6% and 68.3% (compound 3.16 µM); 76.2% and 72.3% and 64.5% (compound 10 µM). For the same compound, the IC50 (curve of compound) was > 10000 nM.

`CC(C)(O)C1CCC(Nc2ccc3ncc(-c4cccc(C(F)(F)F)c4)n3n2)CC1` (stereo unspecified): the viability, T/C (compound 0.0316 µM) is 116% and 108% and 110%; the viability, T/C (compound 0.1 µM) was 95.4% and 96.7% and 97.2%; the viability, T/C (compound 0.316 µM) was 83% and 89.8% and 76.7%; the viability, T/C (compound 1 µM) was 30% and 33.8% and 28.6%; the viability, T/C (compound 3.16 µM) is 0.43% and 0.52% and 1.03%; the viability, T/C (compound 10 µM) was 0.85% and 0.69% and 1%. In addition, the IC50 (curve of compound) was 633 nM and 711 nM and 588 nM.

As to `CC1COCCN1c1cc(C2(O)CC3CCC(C2)O3)c2cnn(-c3ccn[nH]3)c2n1` (stereo unspecified), the viability, T/C reads like this: (compound 0.0316 µM) 57.9% and 71.5% and 44.9%; (compound 0.1 µM) 37.3% and 29.8% and 26.9%; (compound 0.316 µM) 14.3% and 11.5% and 14.8%; (compound 1 µM) 20.7% and 20.3% and 15.5%; (compound 3.16 µM) 14.6% and 11.3% and 12.4%; (compound 10 µM) 2.47% and 3.18% and 2.04%. Moreover, for the setting “curve of compound”, the IC50 is 46.9 nM and 56.9 nM and < 31.6 nM.

For `CC[C@@]1(O)C(=O)OCc2c1cc1n(c2=O)Cc2cc3c(CN(C)C)c(O)ccc3nc2-1`, the viability, T/C reads like this: (compound 0.000999 µM) 116% and 105% and 101%; (compound 0.00316 µM) 84% and 86.8% and 104%; (compound 0.00999 µM) 94.2% and 83.8% and 102%; (compound 0.0316 µM) 70.6% and 71.7% and 80.6%; (compound 0.0999 µM) 22.3% and 25% and 25.1%; (compound 0.316 µM) 14% and 20.4% and 10.5%. The IC50 (curve of compound) was 51.5 nM and 53.9 nM and 59.7 nM.

As to `Cc1[nH]c2ccc(F)cc2c1-c1nc2c3cccnc3c3ncccc3c2[nH]1`, the IC50 (compound alone, run of 02/20/2024) was > 10000 nM.

For the compound `CC(C)n1c(=O)n(C)c2cnc3cc(F)c(-c4ccc(OCCCN5CCCCC5)nc4)cc3c21`, the viability, T/C by setting is: (compound 0.0316 µM) 104% and 95.2% and 133%; (compound 0.1 µM) 94% and 71.9% and 96.8%; (compound 0.316 µM) 103% and 92.6% and 102%; (compound 1 µM) 106% and 94.4% and 105%; (compound 3.16 µM) 81.3% and 74.1% and 100%; (compound 10 µM) 44.8% and 39.7% and 45.3%. Moreover, the IC50 (curve of compound) was 8470 nM and 7090 nM and 9180 nM.
